Laboratory results published in patent US20110245334A1, “USE OF RACEMATES OF PINOCEMBRIN IN PREPARING MEDICAMENTS FOR TREATING STROKE” (CSPC Zhonggi Pharmaceutical Technology (Shijiazhuang) Co. …, priority 2008, published 2011).

How the values were obtained:
MCAO rats [1] = test: Cerebral infarct volume (TTC), MCAO; format: in vivo, rat
Experimental: After neurobehavioral scoring, the rats were put to death by decollation and their brain tissues were removed quickly and put into a refrigerator of −20° C. 10 min later, the brain tissue was moved to an environment of room temperature. After the olfactory bulb, cerebellar and lower brain stem were resected, the brain tissue was cut into five continuous coronal slices with an interval of 2 mm and was cut first on the connection midpoint of brain anterior pole and optic decussation, second on optic decussation, third on funnel handle and fourth on midpoint of funnel handle and thick leaves caudate nucleus. Then the brain slices were quickly put into 5 ml solution containing 4% TTC and 0.1 ml mol·L^−1K2HPO4 and incubated at a constant temperature of 37° C. and in condition of darkness for 30 min. During the time period, the brain slices were tipped every 5 min. […] Every group of brain slices were put in order and photographed. The photographs were processed by an image analysis system and infarct area in every slice was calculated. The infarct volume of every slice was calculated by multiplying the infarct area by the thickness of slice (2 mm), and the infarct volume was the sum of infarct volumes of all slices.
Infarct volume(%)=(volume of surgery-contralateral hemisphere−infarct volume of surgery-homolateral hemisphere)/volume of surgery-contralateral hemisphere×100%

tMCAO rats = test: Infarct volume (TTC), tMCAO time window study; format: in vivo, rat; conditions: 2 hours ischemia and 24 hours reperfusion
Experimental: 1. In the test, transient middle cerebral artery occlusion (tMCAO) model of rats was adopted. The reperfusion was performed after focal cerebral ischemia for 2 hours so as to inspect therapeutic time window of pinocembrin after focal cerebral ischemia. The rats were administered by pinocembrin racemate (1 mg/kg, 5 mg/kg, intravenous injection) after reperfusion 1 hour, 4 hours and 6 hours (i.e., ischemia 3 hour, 6 hours and 8 hours). (R)-pinocembrin and (S)-pinocembrin (1 mg/kg, 5 mg/kg, intravenous injection) were administered after reperfusion 1 hour and 4 hours (i.e., ischemia 3 hour and 6 hours). The therapeutic time windows of these drugs in focal cerebral ischemia were assessed by studying their effects to neurological symptom scores, infarct sizes and brain water contents during 24 hours after tMCAO.
2.4 Experimental Grouping and Administration • Sham operation group (intravenous injection of normal saline after 3 hours of ischemia); • Model group (intravenous injection of 50 mg/kg hydroxypropyl β-cyclodextrin after 3 hours of ischemia); • Nimodipine group (1 mg/kg, administered after 3 hours of ischemia); • Pinocembrin racemate group (1 mg/kg, 5 mg/kg, administered after 3, 6 and 8 hours of ischemia); • (R)-pinocembrin group (1 mg/kg, 5 mg/kg, administered after 3 and 6 hours of ischemia); • (S)-pinocembrin group (1 mg/kg, 5 mg/kg, administered after 3 and 6 hours of ischemia).
First administration was performed by intravenous injection, and intraperitoneal injection was carried out once 12 hours later with a dose 1.5 times of that for intravenous injection.
After neurobehavioral scoring, the rats were put to death by decollation and their brain tissues were taken out quickly and put into a refrigerator of −20° C. 10 min later, the brain tissues were moved to an environment of room temperature. After the olfactory bulb, cerebellar and lower brain stem were resected, the brain tissue was cut into six continuous coronal slices with an interval of 2 mm. Then the brain slices were quickly put into 5 ml solution containing 2% TTC and incubated at a constant temperature of 37° C. and in a condition of darkness for 30 min. During the time, the brain slices were tipped every 5 min. […] Every group of brain slices were put in order and photographed. The photographs were processed by an image analysis system and the infarct areas in each slice were calculated. The infarct volume of each slice was calculated via multiplying the infarct area by thickness of slice (2 mm), and the infarct volume was the sum of infarct volumes of all slices. The infarct volume percentage was expressed as: sick-side infarct volume/total sick-side brain volume.

NO and TNF-α = NO and TNF-α contents in MCAO rats' serum; format: in vivo, rat; conditions: 24 hours after ischemia
in vivo = conditions: SD, rat, iv
MCAO rats [2] = test: Regional cerebral blood flow (LDF), MCAO; format: in vivo, rat
Description: The rats were fixed pronely on the stereotaxic apparatus and subjected to craniotomy. After cleaning for operation visual field, bregma was used as an origin, and a site situated 2 mm behind and 3 mm right to the bregma was selected as a measuring point. The region […] around the site was thinned by a dental drill. In the process, the integrity of dura was maintained and large vessels were avoided. Probe holder was located and fixed.
The rats were supinely fixed on the operating table to carry out MCAO surgery. When a nylon line was inserted in ICA, it was not inserted into intracranial part until LDF value was stable, and blood flow value in 10 min was recorded, and an average value thereof is used as a baseline value of cerebral blood flow. After the MCAO surgery completed, the nylon line was inserted into the intracranial part. When the blood flow value suddenly declined to 20-30% of the baseline value, it was noted that the blood flow in MCA had been blocked. The blood flow value before MCAO in every group was used as a baseline value (100%) of the group. […] LDF value was determined at the same site before the animals was put to death.

## O=C1CC(c2ccccc2)Oc2cc(O)cc(O)c21 (racemic) [Pinocembrin racemate, pinocembrin racemate]
MCAO rats [1]; 3 mg/kg
  Percentage of infarct volume (%): 23.1 ± 3.4 %
MCAO rats [1]; 3 mg/kg, listed as pinocembrin racemate
  Percentage of infarct volume (%): 23.1±3.4%
MCAO rats [1]; 10 mg/kg
  Percentage of infarct volume (%): 21.4 ± 2.1 %
MCAO rats [1]; 10 mg/kg, listed as pinocembrin racemate
  Percentage of infarct volume (%): 21.4±2.1%
MCAO rats [1]; 30 mg/kg
  Percentage of infarct volume (%): 14.6 ± 1.1 %
MCAO rats [1]; 30 mg/kg, listed as pinocembrin racemate
  Percentage of infarct volume (%): 14.6±1.1%
tMCAO rats; 1 mg/kg, 3 h
  Infarct percentage (%): 16.59 ± 7.98 %
tMCAO rats; 1 mg/kg, 6 h
  Infarct percentage (%): 23.01 ± 11.00%
tMCAO rats; 1 mg/kg, 8 h
  Infarct percentage (%): 27.16 ± 13.69%
tMCAO rats; 5 mg/kg, 3 h
  Infarct percentage (%): 13.64 ± 6.32 %
tMCAO rats; 5 mg/kg, 6 h
  Infarct percentage (%): 15.03 ± 4.07 %
tMCAO rats; 5 mg/kg, 8 h
  Infarct percentage (%): 28.32 ± 18.65%
NO and TNF-α; 3 mg/kg
  NO: 109.80 ± 9.38 µmol/L
  TNF-α: 1163.09 ± 51.12 pg/mL
NO and TNF-α; 10 mg/kg
  NO: 107.11 ± 9.13 µmol/L
  TNF-α: 1104.83 ± 48.43 pg/mL
NO and TNF-α; 30 mg/kg
  NO: 104.75 ± 5.03 µmol/L
  TNF-α: 1057.48 ± 48.48 pg/mL
In vivo
  LD50: 491 mg/kg
MCAO rats [2]; time point 10 min, 3 mg/kg
  regional cerebral blood flow (rCBF): 99.91 ± 7.27 % of baseline value
MCAO rats [2]; time point 10 min, 10 mg/kg
  regional cerebral blood flow (rCBF): 99.91 ± 7.27 % of baseline value
MCAO rats [2]; time point 10 min, 30 mg/kg
  regional cerebral blood flow (rCBF): 99.91 ± 7.27 % of baseline value
MCAO rats [2]; time point 20 min, 3 mg/kg
  regional cerebral blood flow (rCBF): 32.03 ± 6.09 % of baseline value
MCAO rats [2]; time point 20 min, 10 mg/kg
  regional cerebral blood flow (rCBF): 31.45 ± 5.6 % of baseline value
MCAO rats [2]; time point 20 min, 30 mg/kg
  regional cerebral blood flow (rCBF): 37.98 ± 6.87 % of baseline value
MCAO rats [2]; time point 30 min, 3 mg/kg
  regional cerebral blood flow (rCBF): 40.76±6.58 % of baseline value
MCAO rats [2]; time point 30 min, 10 mg/kg
  regional cerebral blood flow (rCBF): 50.09±7.09 % of baseline value
MCAO rats [2]; time point 30 min, 30 mg/kg
  regional cerebral blood flow (rCBF): 53.28±8.03 % of baseline value
MCAO rats [2]; time point 40 min, 3 mg/kg
  regional cerebral blood flow (rCBF): 41.59 ± 6.35 % of baseline value
MCAO rats [2]; time point 40 min, 10 mg/kg
  regional cerebral blood flow (rCBF): 47.72 ± 6.67 % of baseline value
MCAO rats [2]; time point 40 min, 30 mg/kg
  regional cerebral blood flow (rCBF): 54.92 ± 8.58 % of baseline value
MCAO rats [2]; time point 50 min, 3 mg/kg
  regional cerebral blood flow (rCBF): 42.81 ± 5.25 % of baseline value
MCAO rats [2]; time point 50 min, 10 mg/kg
  regional cerebral blood flow (rCBF): 49.98 ± 7.1 % of baseline value
MCAO rats [2]; time point 50 min, 30 mg/kg
  regional cerebral blood flow (rCBF): 55.01 ± 6.25 % of baseline value
MCAO rats [2]; time point 60 min, 3 mg/kg
  regional cerebral blood flow (rCBF): 40.8 ± 7.09 % of baseline value
MCAO rats [2]; time point 60 min, 10 mg/kg
  regional cerebral blood flow (rCBF): 48.99 ± 8.14 % of baseline value
MCAO rats [2]; time point 60 min, 30 mg/kg
  regional cerebral blood flow (rCBF): 57.95 ± 6.09 % of baseline value
MCAO rats [2]; time point 70 min, 3 mg/kg
  regional cerebral blood flow (rCBF): 41.69 ± 8.67 % of baseline value
MCAO rats [2]; time point 70 min, 10 mg/kg
  regional cerebral blood flow (rCBF): 47.01 ± 8.09 % of baseline value
MCAO rats [2]; time point 70 min, 30 mg/kg
  regional cerebral blood flow (rCBF): 53.75 ± 7.09 % of baseline value
MCAO rats [2]; time point 80 min, 3 mg/kg
  regional cerebral blood flow (rCBF): 40.75 ± 7.1 % of baseline value
MCAO rats [2]; time point 80 min, 10 mg/kg
  regional cerebral blood flow (rCBF): 46.07 ± 9.08 % of baseline value
MCAO rats [2]; time point 80 min, 30 mg/kg
  regional cerebral blood flow (rCBF): 54.99 ± 6.67 % of baseline value
MCAO rats [2]; time point 90 min, 3 mg/kg
  regional cerebral blood flow (rCBF): 40.99 ± 8.14 % of baseline value
MCAO rats [2]; time point 90 min, 10 mg/kg
  regional cerebral blood flow (rCBF): 51.85 ± 8.03 % of baseline value
MCAO rats [2]; time point 90 min, 30 mg/kg
  regional cerebral blood flow (rCBF): 55.16 ± 7.1 % of baseline value
MCAO rats [2]; time point 100 min, 3 mg/kg
  regional cerebral blood flow (rCBF): 41.16 ± 6.25 % of baseline value
MCAO rats [2]; time point 100 min, 10 mg/kg
  regional cerebral blood flow (rCBF): 47.12 ± 8.58 % of baseline value
MCAO rats [2]; time point 100 min, 30 mg/kg
  regional cerebral blood flow (rCBF): 56.59 ± 8.14 % of baseline value
MCAO rats [2]; time point 110 min, 3 mg/kg
  regional cerebral blood flow (rCBF): 46.59 ± 7.09 % of baseline value
MCAO rats [2]; time point 110 min, 10 mg/kg
  regional cerebral blood flow (rCBF): 46.89 ± 6.25 % of baseline value
MCAO rats [2]; time point 110 min, 30 mg/kg
  regional cerebral blood flow (rCBF): 57.8 ± 7.27 % of baseline value
MCAO rats [2]; time point 120 min, 3 mg/kg
  regional cerebral blood flow (rCBF): 45.8 ± 5.67 % of baseline value
MCAO rats [2]; time point 120 min, 10 mg/kg
  regional cerebral blood flow (rCBF): 51.8 ± 6.09 % of baseline value
MCAO rats [2]; time point 120 min, 30 mg/kg
  regional cerebral blood flow (rCBF): 64.09 ± 6.09 % of baseline value
MCAO rats [2]; time point 130 min, 3 mg/kg
  regional cerebral blood flow (rCBF): 46.99 ± 6.1 % of baseline value
MCAO rats [2]; time point 130 min, 10 mg/kg
  regional cerebral blood flow (rCBF): 56.59 ± 9.08 % of baseline value
MCAO rats [2]; time point 130 min, 30 mg/kg
  regional cerebral blood flow (rCBF): 61.72 ± 6.58 % of baseline value
MCAO rats [2]; time point 140 min, 3 mg/kg
  regional cerebral blood flow (rCBF): 48.01 ± 7.14 % of baseline value
MCAO rats [2]; time point 140 min, 10 mg/kg
  regional cerebral blood flow (rCBF): 57.8 ± 8.03 % of baseline value
MCAO rats [2]; time point 140 min, 30 mg/kg
  regional cerebral blood flow (rCBF): 64.98 ± 6.35 % of baseline value
MCAO rats [2]; time point 150 min, 3 mg/kg
  regional cerebral blood flow (rCBF): 44.07 ± 7.09 % of baseline value
MCAO rats [2]; time point 150 min, 10 mg/kg
  regional cerebral blood flow (rCBF): 56.99 ± 8.58 % of baseline value
MCAO rats [2]; time point 150 min, 30 mg/kg
  regional cerebral blood flow (rCBF): 63.99 ± 5.25 % of baseline value
MCAO rats [2]; time point 160 min, 3 mg/kg
  regional cerebral blood flow (rCBF): 47.85 ± 6.81 % of baseline value
MCAO rats [2]; time point 160 min, 10 mg/kg
  regional cerebral blood flow (rCBF): 58.01 ± 7.89 % of baseline value
MCAO rats [2]; time point 160 min, 30 mg/kg
  regional cerebral blood flow (rCBF): 57.01 ± 7.09 % of baseline value
MCAO rats [2]; time point 170 min, 3 mg/kg
  regional cerebral blood flow (rCBF): 49.12 ± 6.08 % of baseline value
MCAO rats [2]; time point 170 min, 10 mg/kg
  regional cerebral blood flow (rCBF): 54.07 ± 6.81 % of baseline value
MCAO rats [2]; time point 170 min, 30 mg/kg
  regional cerebral blood flow (rCBF): 65.58 ± 8.67 % of baseline value
MCAO rats [2]; time point 180 min, 3 mg/kg
  regional cerebral blood flow (rCBF): 49.89 ± 7.58 % of baseline value
MCAO rats [2]; time point 180 min, 10 mg/kg
  regional cerebral blood flow (rCBF): 55.9 ± 6.08 % of baseline value
MCAO rats [2]; time point 180 min, 30 mg/kg
  regional cerebral blood flow (rCBF): 62.96 ± 6.81 % of baseline value
